Experimental data published in patent US10820823B2, “Evaluation of inhibitory circuit and use thereof” (INTER-UNIVERSITY RESEARCH INSTITUTE C[…] INSTITUTES OF …, priority 2015, dated 2020).

Tests used:
[1] = test system: inhibitory circuit (GABA-A early inhibition); test: Inhibition rate (prepulse attenuation) of auditory change-related brain activity by magnetoencephalography, before and after drug administration; format: in vivo, human; settings: for effect of drug on inhibition: 5 mg single oral administration
Description: In the present embodiment, an action of inhibitory circuits of 13 humans was evaluated using an excitatory circuit for a change response to a sound pressure change in an auditory system. As for the change response, when a sudden slight increase in sound pressure (10 dB) is generated in a background sound in which a short click sound (70 dB) of 1 ms is continuously generated at a frequency of 100 Hz, the human brain reacts thereto with very high sensitivity and a remarkable brain response is triggered.
The evaluation system included a stimulus output unit and a brain activity measurement unit.
Full-head measurement with the cerebral magnetic field measurement unit was performed using a magnetoencephalograph (306 channel magnetoencephalograph (Vector View, Neuromag, Helsinki, Finland)).
Three kinds of stimuli, namely, the test stimulus, the preceding stimulus, and the test+preceding stimulus were sequentially applied to the subject at regular intervals from the stimulus output irnit through an insert earphone from the start of the test, and brain activity induced by the activation of the excitatory circuit at this time was measured as a cerebral magnetic field. […] A predetermined number of trials could be designated in the cerebral magnetic field measurement unit, addition was performed automatically, and an attenuation rate (inhibition rate) was obtained from the amplitude of the addition waveform.
Effect of diazepam (5 mg single oral administration) on inhibition was examined by comparing the inhibition rates before and after the administration of the drug to two subjects of different types by the same recording procedure as in first embodiment. The amplitude of the response was taken between vertices of a component of 50 ms and a component of 100 ms (black triangles).

[2] = test system: GABA-A early inhibition due to basket cells; settings: slice specimens; cited from earlier work

Question: With `CN1C(=O)CN=C(c2ccccc2)c2cc(Cl)ccc21` [diazepam] as the compound, how does the “change of inhibition after the administration” value ([1]; Subject 1 (strong inhibition before administration), diazepam 5 mg single oral administration, 1 hour after administration) read?
Answer: The value was “little change”.

Question: And the “effect of drug on inhibition” value ([1]; Subject 1)?
Answer: Its value is “small effect”.

Question: And the “inhibition rate after the administration” value ([1]; Subject 2 (weak early inhibition before administration), diazepam 5 mg single oral administration, 1 hour after administration)?
Answer: Its value is 45%.

Question: What about the “effect of drug on inhibition” value ([1]; Subject 2) of the same compound?
Answer: Its value is “strong effect”.

Question: And the “effect on GABA-A early inhibition due to basket cells” value [2]?
Answer: Its value is “enhances”.
